Experimental data reported in patent publication US7848888B2, “Method for identification of biologically active agents” (Vitruvean LLC, priority 2002, dated 2010).

What was measured:
[1] = test system: flies; conditions: administered orally to flies; cited from earlier work
[2] = test system: wild-type flies; assay: Motion tracking with wild-type flies; format: in vivo, Drosophila; conditions: flies fed 0.1M or 0.05M, compared to controls; FIG. 19
Source text: In the present exemplary application, to capture a movie of the movement of flies within specimen container 104, robot 114 grabs a specimen container 104 and positions it in front of camera 124. However, before positioning specimen container 104 in front of camera 124, robot 114 first raises specimen container 104 above a distance, such as about 2 centimeters, above base plate 106, then releases specimen container 104, which forces the flies within specimen container 104 to fall down to the bottom of specimen container 104. Robot 114 then grabs specimen container 104 again and positions it to be filmed by camera 124. In one exemplary embodiment, camera 124 captures about 40 consecutive frames at a frame rate of about 10 frames per second. It should be noted, however, that the number of frames captured and the frame rate used can vary. Additionally, the step of dropping specimen container 104 prior to filming can be omitted.
“Movement trait data” as used herein refers to the measurements made of one or more movement traits. Examples of “movement trait data” measurements include, but are not limited to X-pos, X-speed, speed, turning, stumbling, size, T-count, P-count, T-length, Cross150, Cross250, and F-count. Descriptions of these particular measurements are provided below. • X-Pos: The X-Pos score is calculated by concatenating the lists of x-positions for all trajectories and then computing the average of all values in the concatenated list. • X-Speed: The X-Speed score is calculated by first computing the lengths of the x-components of the speed vectors by taking the absolute difference in x-positions for subsequent frames. The resulting lists of x-speeds for all trajectories are then concatenated and the average x-speed for the concatenated list is computed. • Speed: The Speed score is calculated in the same way as the X-Speed score, but instead of only using the length of the x-component of the speed vector, the length of the whole vector is used. […]

[3] = test system: Drosophila expressing a mutant form of human Huntington (HD); assay: Motion tracking with Drosophila model of Huntington disease; format: in vivo; conditions: HD model with drug vs HD model without drug
Procedure: “Movement trait data” as used herein refers to the measurements made of one or more movement traits. Examples of “movement trait data” measurements include, but are not limited to X-pos, X-speed, speed, turning, stumbling, size, T-count, P-count, T-length, Cross150, Cross250, and F-count. Descriptions of these particular measurements are provided below. • X-Pos: The X-Pos score is calculated by concatenating the lists of x-positions for all trajectories and then computing the average of all values in the concatenated list. • X-Speed: The X-Speed score is calculated by first computing the lengths of the x-components of the speed vectors by taking the absolute difference in x-positions for subsequent frames. The resulting lists of x-speeds for all trajectories are then concatenated and the average x-speed for the concatenated list is computed. • Speed: The Speed score is calculated in the same way as the X-Speed score, but instead of only using the length of the x-component of the speed vector, the length of the whole vector is used. That is, [length]=square root of ([x-length]^2+[y-length]^2). • Turning: The Turning score is calculated in the same way as the Speed score, but instead of using the length of the speed vector, the absolute angle between the current speed vector and the previous one is used, giving a value between 0 and 90 degrees. • Stumbling: The Stumbling score is calculated in the same way as the Speed score, but instead of using the length of the speed vector, the absolute angle between the current speed vector and the direction of body orientation is used, giving a value between 0 and 90 degrees. • Size: The Size score is calculated in the same way as the Speed score, but instead of using the length of the speed vector, the size of the detected fly is used. • T-Count: The T-Count score is the number of trajectories detected in the movie. • P-Count: The P-Count score is the total number of points in the movie (i.e., the number of points in each trajectory, summed over all trajectories in the movie). • T-Length: The T-Length score is the sum of the lengths of all speed vectors in the movie, giving the total length all flies in the movie have walked. • Cross150: The Cross150 score is the number of trajectories that either crossed the line at x=150 in the negative x-direction (from bottom to top of the vial) during the movie, or that were already above that line at the start of the movie. […] In other words this score measures the number of detected flies that either managed to hold on to the tube or that managed to climb above the x=150 line within the length of the movie. • Cross250: The Cross250 score is equivalent to the Cross150 score, but uses a line at x=250 instead. • F-Count: The F-Count score counts the number of detected flies in each individual frame, and then takes the maximum of these values over all frames. […]
Drosophila expressing a mutant form of human Huntington (HD) have a functional deficit that is quantifiable, reproducible, and is suitable for automated high-throughput screening. Drosophila (or specimen) movements can be analyzed for various characteristics and/or traits. For example, statistics on the movements of the specimens, such as the x and y travel distance, path length, speed, turning, and stumbling, can be calculated. […]
Differences between the HD model+/−drug (HDAC inhibitor, TSA) and wild type (control)+/−drug (TSA) can clearly be detected using the motion tracking software. […]

NCC1(CC(=O)O)CCCCC1 [Gabapentin]
seizure and mean recovery times following seizure [1]: reduce

[Cl-].[Li+] [LiCl, Lithium Chloride]
incidence of stumbling [2]: increased incidence
incidence of turning [2]: increased incidence
speed [2]: significant reduction

O=C1NC(=O)C(c2ccccc2)(c2ccccc2)N1 [Phenytoin]
seizure and mean recovery times following seizure [1]: reduce

CC(/C=C/C(=O)NO)=C\[C@@H](C)C(=O)c1ccc(N(C)C)cc1 [TSA]
Speed score ([3]; p-values, FIG. 21B): do not yield significant values
Turning score ([3]; p-values, FIG. 21D): do not yield significant values
Stumbling score ([3]; p-values, FIG. 21F): do not yield significant values
T-Length score ([3]; p-values, FIG. 21H): best highlight the therapeutic effect
motor performance, Cross150 score (climbing ability) ([3]; FIG. 20, 21J): restore climbing ability for HD flies to almost the same level as for wt flies

CC1(C)O[C@@H]2[C@@H](CO[C@@]3(COS(N)(=O)=O)OC(C)(C)O[C@@H]23)O1 [Topiramate]
seizure and mean recovery times following seizure [1]: reduce
